Earlier results, collected in patent US20110064813A1, “USE OF SALSALATE WITH OR WITHOUT CAFFEINE AND WITH OR WITHOUT OMEGA 3, AND OTHER PHARMACEUTICAL COMPOUNDS IN A DISTINCTIVELY UNIQUE NANO-PARTICULATE CAPSULE AND TABLET” (priority 2009, published 2011).

Legend:
[1] = tested on: patients with rheumatoid arthritis; conditions: compared with diclofenac
[2] = compared with aspirin and other NSAIDS
pro-thrombin time = conditions: unlike Aspirin
[3] = acidic conditions
[4] = administered orally
[5] = tested on: patients presenting with Type 2 Diabetes (T2D); conditions: tablet forms of salsalate; T2D patients and obese patients

In the case of O=C(Oc1ccccc1C(=O)O)c1ccccc1O [salsalate, 2-(2-Hydroxybenzoyl)oxybenzoic acid], the clinical efficacy [1] is given as “equal to diclofenac”, the “fecal gastrointestinal blood loss” value [2] is given as “less fecal gastrointestinal blood loss than aspirin” and the “inhibition of pro-thrombin time” value (pro-thrombin time) is given as “does not inhibit”. The “salsalate induced liver dysfunction” value (HIV-infected patients; HIV patients) was “a significant number of HIV patients experienced salsalate induced liver dysfunction”, the endothelial function (HIV-infected patients; HIV-infected patients) was “improved endothelial function” and the solubility [3] was “nearly insoluble”. The “time to full benefit (plasma salicylate steady state)” value [4] was 3 to 4 days and the “lowering of glucose levels” value [5] was “experienced efficacy in the lowering of glucose levels”.
